Assay results taken from ChEMBL document CHEMBL1201862, “PubChem BioAssay data set” (2004).
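Step 1: Grow cells in 96-well plates. Step 2: Expose to compound for 48 hours at 5 concentrations. Step 3: Interpolate endpoints linearly; if unreached, use highest concentration. GI50 is the concentration that inhibits growth by half.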 Active and inactive are the calls of the source. No stated cut-off is given here; in the data, active = GI50 up to about 1.1 µM and inactive = higher.

What was measured:
Experiment in all cases: NCI anticancer screen, dose series, 48 h
786-0 = test system: 786-0
A498 = test system: A498
A549 = test system: A549
ACHN = test system: ACHN
CAKI-1 = test system: CAKI-1
CCRF-CEM = test system: CCRF-CEM
COLO 205 = test system: COLO 205
DLD-1 = test system: DLD-1
DMS-273 = test system: DMS-273
EKVX = test system: EKVX
HCC 2998 = test system: HCC 2998
HCT-116 = test system: HCT-116
HCT-15 = test system: HCT-15
HOP-18 = test system: HOP-18
HOP-62 = test system: HOP-62
HOP-92 = test system: HOP-92
HT-29 = test system: HT-29
IGROV-1 = test system: IGROV-1
K562 = test system: K562
KM-20L2 = test system: KM-20L2
KM12 = test system: KM12
LOX IMVI = test system: LOX IMVI
LXFL 529 = test system: LXFL 529
M14 = test system: M14
M19-MEL = test system: M19-MEL
MOLT-4 = test system: MOLT-4
Malme-3M = test system: Malme-3M
NCI-H226 = test system: NCI-H226
NCI-H23 = test system: NCI-H23
NCI-H460 = test system: NCI-H460
NCI-H522 = test system: NCI-H522
OVCAR-3 = test system: OVCAR-3
OVCAR-4 = test system: OVCAR-4
OVCAR-5 = test system: OVCAR-5
OVCAR-8 = test system: OVCAR-8
RXF 393 = test system: RXF 393
SF-268 = test system: SF-268
SF-295 = test system: SF-295
SF-539 = test system: SF-539
SK-MEL-28 = test system: SK-MEL-28
SK-MEL-2 = test system: SK-MEL-2
SK-MEL-5 = test system: SK-MEL-5
SK-OV-3 = test system: SK-OV-3
SN12C = test system: SN12C
SNB-19 = test system: SNB-19
SNB-75 = test system: SNB-75
SNB-78 = test system: SNB-78
SW-620 = test system: SW-620
TK-10 = test system: TK-10
U-251 = test system: U-251
UACC-257 = test system: UACC-257
UACC-62 = test system: UACC-62
UO-31 = test system: UO-31
XF498 = test system: XF498

In the case of CCOC(=O)c1cc(=O)n(C)c(=O)n1C, the GI50 (786-0) is reported as > 100 µM (inactive), the GI50 (A498) is reported as > 100 µM (inactive) and the GI50 (A549) is reported as > 100 µM (inactive). For the same compound, the GI50 (ACHN) was > 100 µM (inactive), the GI50 (CAKI-1) was > 100 µM (inactive) and the GI50 (CCRF-CEM) was > 100 µM (inactive). For the same compound, the GI50 (COLO 205) was > 100 µM (inactive), the GI50 (DLD-1) was > 100 µM (inactive) and the GI50 (DMS-273) was > 100 µM (inactive). For the same compound, the GI50 (EKVX) was > 100 µM (inactive), the GI50 (HCC 2998) was > 100 µM (inactive) and the GI50 (HCT-116) was > 100 µM (inactive). The GI50 (HCT-15) was over 100 µM, the GI50 (HOP-18) was > 100 µM (inactive) and the GI50 (HOP-62) was > 100 µM (inactive). For the same compound, the GI50 (HOP-92) was > 100 µM (inactive), the GI50 (HT-29) was > 100 µM (inactive) and the GI50 (IGROV-1) was > 100 µM (inactive). The GI50 (K562) was > 100 µM (inactive), the GI50 (KM-20L2) was > 100 µM (inactive) and the GI50 (KM12) was > 100 µM (inactive). The GI50 (LOX IMVI) was > 100 µM (inactive), the GI50 (LXFL 529) was > 100 µM (inactive) and the GI50 (M14) was > 100 µM (inactive). For the same compound, the GI50 (M19-MEL) was > 100 µM (inactive), the GI50 (MOLT-4) was > 100 µM (inactive) and the GI50 (Malme-3M) was > 100 µM (inactive). For the same compound, the GI50 (NCI-H226) was > 100 µM (inactive), the GI50 (NCI-H23) was > 100 µM (inactive) and the GI50 (NCI-H460) was > 100 µM (inactive). For the same compound, the GI50 (NCI-H522) was > 100 µM (inactive), the GI50 (OVCAR-3) was > 100 µM (inactive) and the GI50 (OVCAR-4) was > 100 µM (inactive). The GI50 (OVCAR-5) was > 100 µM (inactive), the GI50 (OVCAR-8) was > 100 µM (inactive) and the GI50 (RXF 393) was > 100 µM (inactive). For the same compound, the GI50 (SF-268) was > 100 µM (inactive), the GI50 (SF-295) was > 100 µM (inactive) and the GI50 (SF-539) was > 100 µM (inactive). The GI50 (SK-MEL-28) was > 100 µM (inactive), the GI50 (SK-MEL-2) was > 100 µM (inactive) and the GI50 (SK-MEL-5) was > 100 µM (inactive). The GI50 (SK-OV-3) was > 100 µM (inactive), the GI50 (SN12C) was > 100 µM (inactive) and the GI50 (SNB-19) was > 100 µM (inactive). The GI50 (SNB-75) was > 100 µM (inactive), the GI50 (SNB-78) was > 100 µM (inactive) and the GI50 (SW-620) was > 100 µM (inactive). The GI50 (TK-10) was > 100 µM (inactive), the GI50 (U-251) was > 100 µM (inactive) and the GI50 (UACC-257) was > 100 µM (inactive). For the same compound, the GI50 (UACC-62) was > 100 µM (inactive), the GI50 (UO-31) was > 100 µM (inactive) and the GI50 (XF498) was > 100 µM (inactive).
